Assay [1] concerns Preadipocytes (3T3-L1). Nature of the assay: Inhibition of adipocyte differentiation and triglyceride level (Oil Red O staining). Type of assay: cell-based. As for the experimental part:
To determine the inhibiting activity of the compound prepared by Examples 1, i.e., dehydrodiconiferylalcohol (DHCA), on the adipocytes differentiation and triglyceride level, following experiment was performed.
Preadipocytes (3T3-L1) purchased from ATCC (American […], USA) were cultured in RPMI medium containing 10% FBS and MDI cocktail (isobutylmethylxanthine, dexamethasone, insulin) was added thereto for differentiating into mature adipocytes. After two days, the medium was replaced and treated with only insulin. Thereafter, the medium was replaced and equal concentration of insulin was treated again every other day. DHCA ranging from 10 to 1000 ug/ml of the concentrations was treated when the adipocyte differentiation was induced and equal concentration of the DHCA was treated at every replacement of the medium. Troglitazone (Sigma Co.) and 10 uM SB203580 (Sigma Co.) were treated as control groups and 0.01% ethanol was used as a vehicle control. After eight days lapsed, the accumulated fat within differentiated cell was stained with Oil Red 0 staining reagent and the absorbance was determined with optical density qualitatively at 490 nm. The inhibition percentage (%) was calculated by following Empirical Formula 1. The Inhibition Percentage (%)=[O.D. of test group]/[O.D. value of control group]×100 Empirical Formula 1

Assay [2] has as its target T1, PPAR α (Homo sapiens, UniProt Q07869).
T1 construct: expressed in transfected cells; host or cells: CV-1 cells
T1 sequence (Q07869 1-468): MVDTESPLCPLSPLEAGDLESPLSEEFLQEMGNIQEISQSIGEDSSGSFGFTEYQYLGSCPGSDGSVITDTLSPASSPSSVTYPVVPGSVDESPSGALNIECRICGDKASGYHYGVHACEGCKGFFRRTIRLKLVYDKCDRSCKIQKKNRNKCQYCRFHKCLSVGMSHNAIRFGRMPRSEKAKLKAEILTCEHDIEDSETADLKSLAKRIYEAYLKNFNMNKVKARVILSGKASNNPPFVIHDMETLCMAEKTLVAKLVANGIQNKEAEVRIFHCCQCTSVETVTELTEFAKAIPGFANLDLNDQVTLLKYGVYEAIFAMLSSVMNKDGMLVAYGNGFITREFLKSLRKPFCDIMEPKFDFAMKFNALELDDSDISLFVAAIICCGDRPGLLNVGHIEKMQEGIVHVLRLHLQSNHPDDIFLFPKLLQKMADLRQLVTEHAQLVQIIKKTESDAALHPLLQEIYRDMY
T1 sequence (P19793 1-462 partner): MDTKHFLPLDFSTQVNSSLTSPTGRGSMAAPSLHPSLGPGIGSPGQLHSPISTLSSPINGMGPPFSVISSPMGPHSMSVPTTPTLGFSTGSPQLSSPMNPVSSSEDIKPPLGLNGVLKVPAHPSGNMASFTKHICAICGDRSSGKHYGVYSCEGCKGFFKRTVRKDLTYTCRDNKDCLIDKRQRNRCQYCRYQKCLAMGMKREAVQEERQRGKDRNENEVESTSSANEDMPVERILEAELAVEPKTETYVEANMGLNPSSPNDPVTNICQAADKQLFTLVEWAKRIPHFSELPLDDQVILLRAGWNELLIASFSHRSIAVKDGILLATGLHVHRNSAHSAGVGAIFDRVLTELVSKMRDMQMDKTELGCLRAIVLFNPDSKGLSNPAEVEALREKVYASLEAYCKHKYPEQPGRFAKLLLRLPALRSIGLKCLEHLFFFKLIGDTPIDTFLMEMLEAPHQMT
Nature of the assay: PPAR α activation, tkPPRE-luciferase reporter in transfected CV-1 cells. The settings on record: 24 hours. The format is cell-based. How it is done:
To determine the regulating activity of the compound prepared by Example 1 on the PPAR α activation, following experiment was performed.
CV-1 cells were transiently cotransfected with both tkPPRE-luciferase and pCMV-PPAR α, together with pCMV-RXR and pCMV-β-Gal as a transfection control. Cells were treated with DHCA or various fractions, i.e. hexane and ethylacetate fractions obtained from this Cucurbitaceae family plant extract at the concentration of 100 ug/ml. Cells were also treated with DMSO or fenofibrate (100 uM, Sigma Co.), which is a well known agonist of PPARα. After 24 hours, cell lysates were prepared for the luciferase assay, and the activities were normalized to β-Gal activities.

On to `COc1cc(C2Oc3c(OC)cc(/C=C/CO)cc3C2CO)ccc1O` (stereo not shown) [DHCA, dehydrodiconiferyl alcohol], for which the “anti-adipogenic activity compared with SB203580” value in assay [1] (3T3-L1, SB203580 10 uM as control) was “comparable to that of SB203580”. The “level of produced triglycerides and adipocytes differentiation” value in assay [1] (3T3-L1 induced with MDI, 8 days, Oil Red O, O.D. 490 nm, DHCA 10 to 1000 ug/ml) is recorded as “significantly reduced in a dose dependent manner”. In assay [2] (100 ug/ml, normalized to β-Gal), the “increase of luciferase activity as compared with control” value came to 10 folds. Besides, the “magnitude of PPAR α activation compared with fenofibrate” value in assay [2] (DHCA 100 ug/ml vs fenofibrate 100 uM) was “higher than that of fenofibrate treated cells”.

Values taken from patent publication US7884129B2, “Composition comprising the alcohol compound isolated from the extract of cucurbitaceae family plant having anti-adipogenic and anti-obesity activity” (Helixir Co., Ltd., priority 2003, dated 2011).
